For orientation: IC50 means the midpoint of a concentration-inhibition curve.

Consider two molecules from paper PMC5320518, “Novel Liver-targeted conjugates of Glycogen Phosphorylase Inhibitor PSN-357 for the Treatment of Diabetes: Design, Synthesis, Pharmacokinetic and Pharmacological Evaluations” (Scientific Reports, 2017).

Like-named read-outs stand apart in the source and are kept apart here.

One data set has as its system isolated rat hepatocytes. The experiment in a line: Glycogenolysis inhibition in isolated rat hepatocytes. The class given is cell-based. To be noted: mean ± S.D. of three, NI means no inhibition. The source says: To evaluate the effects of all compounds in cells, the glycogenolysis assays were established in both rat and human liver cells based on the published method. […] The inhibitory activities of the derivatives of PSN-357 (e.g. 25–28) were also explored. It is not surprising that the derivatives still retained micromolar inhibitory activities. Introduction of steric bulks to the hydroxyl group (e.g. 33, 40, 42, 48) led to a complete loss of activity. Data analysis indicated no clear SAR for the substitutents in the cell-based assays.
The inhibition of hepatic glycogenolysis was monitored by the measurement of liver glycogen, which was done quantitatively by the anthrone reagent (Sigma) colorimetric method based on the published method. Isolated rat hepatocytes or HepG2 cells (Sigma) were treated with the test compound or DMSO solvent (final concentration, 0.10%), followed by 60-min incubation with 0.3 nM glucagon (GGN). Assays were terminated by centrifugation, and cells were digested with 30% KOH followed by glycogen determination. The IC50 values were estimated by fitting the inhibition data to a dose-dependent curve using a logistic derivative equation.

Data set [1] is described as follows: Stability in simulated gastric fluid (SGF). Type of data set: in vitro ADME. To be noted: SGF pH 1.21 with pepsin, 2 μM, 37 °C, 24 h incubation.
A short description of data set [2]: Stability in simulated intestinal fluid (SIF). To be noted: SIF pH 6.79 with pancreatin, 2 μM, 37 °C, 24 h incubation. The class given is in vitro ADME.

For the molecule `C[C@H](CCC(=O)N[C@@H](CC(=O)O)C(=O)OC1CCN(C(=O)[C@H](Cc2ccc(F)cc2)NC(=O)c2cc3cc(Cl)ncc3[nH]2)CC1)[C@H]1CC[C@H]2[C@@H]3[C@H](O)C[C@@H]4C[C@H](O)CC[C@]4(C)[C@H]3C[C@H](O)[C@]12C` [Conjugate 6], the IC50 was 13.4 µM in the data set with isolated rat hepatocytes (Rattus norvegicus, Hepatocyte, 1 h, read-out: IC50 (glycogenolysis inhibition, rat hepatocytes), isolated rat hepatocytes, 60-min incubation with 0.3 nM glucagon) and 13.4 ± 2.55 µM with isolated rat hepatocytes (read-out: IC50 (glycogenolysis inhibition, rat hepatocytes), isolated rat hepatocytes, 60-min incubation with 0.3 nM glucagon). In data set [1], the “stability in SGF (in words)” value was “stable”. The “stability in SIF (in words)” value in data set [2] is recorded as “stable up to 24 h”.
Consider `O=C(N[C@@H](Cc1ccc(F)cc1)C(=O)N1CCC(O)CC1)c1cc2cc(Cl)ncc2[nH]1` [PSN-357], for which the IC50 in the data set with isolated rat hepatocytes (Hepatocyte, 1 h, isolated rat hepatocytes, 60-min incubation with 0.3 nM glucagon, read-out: IC50 (glycogenolysis inhibition, rat hepatocytes)) was determined as 10.7 ± 2.73 µM.
